{"source": "PubChem BioAssay (NCI)", "experiment_in_all_cases": "growth of human tumour cells (NCI), 48 h", "key": {"[1]": {"system": "SW-620 colon"}, "[2]": {"system": "IGROV1 ovarian"}, "[3]": {"system": "CAKI-1 renal"}, "[4]": {"system": "NCI-H460 lung"}, "[5]": {"system": "HT29 colon"}, "[6]": {"system": "SK-MEL-28 melanoma"}, "[7]": {"system": "RXF 393 renal"}, "[8]": {"system": "COLO 205 colon"}, "[9]": {"system": "MDA-MB-231 breast"}, "[10]": {"system": "MOLT-4 leukemia"}, "[11]": {"system": "NCI-H522 lung"}, "[12]": {"system": "SF-295 CNS"}, "[13]": {"system": "PC-3 prostate"}, "[14]": {"system": "BT-549 breast"}, "[15]": {"system": "NCI/ADR-RES ovarian"}, "[16]": {"system": "MALME-3M melanoma"}, "[17]": {"system": "SNB-75 CNS"}, "[18]": {"system": "T-47D breast"}, "[19]": {"system": "SK-MEL-2 melanoma"}, "[20]": {"system": "NCI-H23 lung"}, "[21]": {"system": "SR leukemia"}, "[22]": {"system": "SF-539 CNS"}, "[23]": {"system": "HOP-62 NSCLC"}, "[24]": {"system": "TK-10 renal"}, "[25]": {"system": "OVCAR-3 ovarian"}, "[26]": {"system": "OVCAR-8 ovarian"}, "[27]": {"system": "SK-OV-3 ovarian"}, "[28]": {"system": "LOX IMVI melanoma"}}, "note": "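How tested: cells in 96-well plates exposed to compound for 48 hours at five concentrations. At the GI50, growth is halved. TGI marks complete inhibition of growth.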", "data": [{"compound": "N#Cc1c(NCc2ccccc2)nc(NCc2ccccc2)c(C#N)c1-c1cccc(O)c1", "values": [{"measurement": "GI50", "setting": "[1]", "value": 4.49, "unit": "µM"}, {"measurement": "TGI", "setting": "[1]", "value": 68.2, "unit": "µM"}, {"measurement": "GI50", "setting": "[2]", "value": 19.7, "unit": "µM"}, {"measurement": "TGI", "setting": "[2]", "value": 41.1, "unit": "µM"}, {"measurement": "GI50", "setting": "[3]", "value": 2.77, "unit": "µM"}, {"measurement": "TGI", "setting": "[3]", "value": 19.4, "unit": "µM"}, {"measurement": "GI50", "setting": "[4]", "value": 14.9, "unit": "µM"}, {"measurement": "TGI", "setting": "[4]", "value": 31.4, "unit": "µM"}, {"measurement": "GI50", "setting": "[5]", "value": 41.3, "unit": "µM"}, {"measurement": "TGI", "setting": "[5]", "value": "> 100", "unit": "µM"}, {"measurement": "GI50", "setting": "[6]", "value": 61, "unit": "µM"}, {"measurement": "TGI", "setting": "[6]", "value": "> 100", "unit": "µM"}, {"measurement": "GI50", "setting": "[7]", "value": 13.8, "unit": "µM"}, {"measurement": "TGI", "setting": "[7]", "value": 34.9, "unit": "µM"}, {"measurement": "GI50", "setting": "[8]", "value": 36.7, "unit": "µM"}, {"measurement": "TGI", "setting": "[8]", "value": "> 100", "unit": "µM"}, {"measurement": "GI50", "setting": "[9]", "value": 2.23, "unit": "µM"}, {"measurement": "TGI", "setting": "[9]", "value": 7.34, "unit": "µM"}, {"measurement": "GI50", "setting": "[10]", "value": 3.3, "unit": "µM"}, {"measurement": "TGI", "setting": "[10]", "value": "> 100", "unit": "µM"}, {"measurement": "GI50", "setting": "[11]", "value": 5.89, "unit": "µM"}, {"measurement": "TGI", "setting": "[11]", "value": 33.1, "unit": "µM"}, {"measurement": "GI50", "setting": "[12]", "value": 2.92, "unit": "µM"}, {"measurement": "TGI", "setting": "[12]", "value": 13.2, "unit": "µM"}, {"measurement": "GI50", "setting": "[13]", "value": 4.66, "unit": "µM"}, {"measurement": "TGI", "setting": "[13]", "value": 28.8, "unit": "µM"}, {"measurement": "GI50", "setting": "[14]", "value": 10.1, "unit": "µM"}, {"measurement": "TGI", "setting": "[14]", "value": 35.8, "unit": "µM"}, {"measurement": "GI50", "setting": "[15]", "value": 13.8, "unit": "µM"}, {"measurement": "TGI", "setting": "[15]", "value": 48, "unit": "µM"}, {"measurement": "GI50", "setting": "[16]", "value": 10.1, "unit": "µM"}, {"measurement": "TGI", "setting": "[16]", "value": 32.5, "unit": "µM"}, {"measurement": "GI50", "setting": "[17]", "value": 39.4, "unit": "µM"}, {"measurement": "TGI", "setting": "[17]", "value": "> 100", "unit": "µM"}, {"measurement": "GI50", "setting": "[18]", "value": 4.03, "unit": "µM"}, {"measurement": "TGI", "setting": "[18]", "value": "> 100", "unit": "µM"}, {"measurement": "GI50", "setting": "[19]", "value": 6.23, "unit": "µM"}, {"measurement": "TGI", "setting": "[19]", "value": 23, "unit": "µM"}, {"measurement": "GI50", "setting": "[20]", "value": 11, "unit": "µM"}, {"measurement": "TGI", "setting": "[20]", "value": 37.4, "unit": "µM"}, {"measurement": "GI50", "setting": "[21]", "value": 2.09, "unit": "µM"}, {"measurement": "TGI", "setting": "[21]", "value": 7.48, "unit": "µM"}, {"measurement": "GI50", "setting": "[22]", "value": 5.18, "unit": "µM"}, {"measurement": "TGI", "setting": "[22]", "value": 22.1, "unit": "µM"}, {"measurement": "GI50", "setting": "[23]", "value": 10.5, "unit": "µM"}, {"measurement": "TGI", "setting": "[23]", "value": 23.1, "unit": "µM"}, {"measurement": "GI50", "setting": "[24]", "value": 4.11, "unit": "µM"}, {"measurement": "TGI", "setting": "[24]", "value": 17.4, "unit": "µM"}, {"measurement": "GI50", "setting": "[25]", "value": 3.31, "unit": "µM"}, {"measurement": "TGI", "setting": "[25]", "value": 19.4, "unit": "µM"}, {"measurement": "GI50", "setting": "[26]", "value": 19.2, "unit": "µM"}, {"measurement": "TGI", "setting": "[26]", "value": 52.2, "unit": "µM"}, {"measurement": "GI50", "setting": "[27]", "value": 7.79, "unit": "µM"}, {"measurement": "TGI", "setting": "[27]", "value": 46.5, "unit": "µM"}, {"measurement": "GI50", "setting": "[28]", "value": 2.96, "unit": "µM"}]}]}
